The values that follow come from patent publication US8815882B2, “Pyrazole aminopyrimidine derivatives as LRRK2 modulators” (Genentech, Inc., priority 2010, dated 2014).

One assay deals with T1, LRRK2 (Homo sapiens, UniProt Q5S007, G2019S).
T1 construct: purchased Invitrogen PV4882 (lot 567054A)
T1 sequence (Q5S007 whole entry G2019S): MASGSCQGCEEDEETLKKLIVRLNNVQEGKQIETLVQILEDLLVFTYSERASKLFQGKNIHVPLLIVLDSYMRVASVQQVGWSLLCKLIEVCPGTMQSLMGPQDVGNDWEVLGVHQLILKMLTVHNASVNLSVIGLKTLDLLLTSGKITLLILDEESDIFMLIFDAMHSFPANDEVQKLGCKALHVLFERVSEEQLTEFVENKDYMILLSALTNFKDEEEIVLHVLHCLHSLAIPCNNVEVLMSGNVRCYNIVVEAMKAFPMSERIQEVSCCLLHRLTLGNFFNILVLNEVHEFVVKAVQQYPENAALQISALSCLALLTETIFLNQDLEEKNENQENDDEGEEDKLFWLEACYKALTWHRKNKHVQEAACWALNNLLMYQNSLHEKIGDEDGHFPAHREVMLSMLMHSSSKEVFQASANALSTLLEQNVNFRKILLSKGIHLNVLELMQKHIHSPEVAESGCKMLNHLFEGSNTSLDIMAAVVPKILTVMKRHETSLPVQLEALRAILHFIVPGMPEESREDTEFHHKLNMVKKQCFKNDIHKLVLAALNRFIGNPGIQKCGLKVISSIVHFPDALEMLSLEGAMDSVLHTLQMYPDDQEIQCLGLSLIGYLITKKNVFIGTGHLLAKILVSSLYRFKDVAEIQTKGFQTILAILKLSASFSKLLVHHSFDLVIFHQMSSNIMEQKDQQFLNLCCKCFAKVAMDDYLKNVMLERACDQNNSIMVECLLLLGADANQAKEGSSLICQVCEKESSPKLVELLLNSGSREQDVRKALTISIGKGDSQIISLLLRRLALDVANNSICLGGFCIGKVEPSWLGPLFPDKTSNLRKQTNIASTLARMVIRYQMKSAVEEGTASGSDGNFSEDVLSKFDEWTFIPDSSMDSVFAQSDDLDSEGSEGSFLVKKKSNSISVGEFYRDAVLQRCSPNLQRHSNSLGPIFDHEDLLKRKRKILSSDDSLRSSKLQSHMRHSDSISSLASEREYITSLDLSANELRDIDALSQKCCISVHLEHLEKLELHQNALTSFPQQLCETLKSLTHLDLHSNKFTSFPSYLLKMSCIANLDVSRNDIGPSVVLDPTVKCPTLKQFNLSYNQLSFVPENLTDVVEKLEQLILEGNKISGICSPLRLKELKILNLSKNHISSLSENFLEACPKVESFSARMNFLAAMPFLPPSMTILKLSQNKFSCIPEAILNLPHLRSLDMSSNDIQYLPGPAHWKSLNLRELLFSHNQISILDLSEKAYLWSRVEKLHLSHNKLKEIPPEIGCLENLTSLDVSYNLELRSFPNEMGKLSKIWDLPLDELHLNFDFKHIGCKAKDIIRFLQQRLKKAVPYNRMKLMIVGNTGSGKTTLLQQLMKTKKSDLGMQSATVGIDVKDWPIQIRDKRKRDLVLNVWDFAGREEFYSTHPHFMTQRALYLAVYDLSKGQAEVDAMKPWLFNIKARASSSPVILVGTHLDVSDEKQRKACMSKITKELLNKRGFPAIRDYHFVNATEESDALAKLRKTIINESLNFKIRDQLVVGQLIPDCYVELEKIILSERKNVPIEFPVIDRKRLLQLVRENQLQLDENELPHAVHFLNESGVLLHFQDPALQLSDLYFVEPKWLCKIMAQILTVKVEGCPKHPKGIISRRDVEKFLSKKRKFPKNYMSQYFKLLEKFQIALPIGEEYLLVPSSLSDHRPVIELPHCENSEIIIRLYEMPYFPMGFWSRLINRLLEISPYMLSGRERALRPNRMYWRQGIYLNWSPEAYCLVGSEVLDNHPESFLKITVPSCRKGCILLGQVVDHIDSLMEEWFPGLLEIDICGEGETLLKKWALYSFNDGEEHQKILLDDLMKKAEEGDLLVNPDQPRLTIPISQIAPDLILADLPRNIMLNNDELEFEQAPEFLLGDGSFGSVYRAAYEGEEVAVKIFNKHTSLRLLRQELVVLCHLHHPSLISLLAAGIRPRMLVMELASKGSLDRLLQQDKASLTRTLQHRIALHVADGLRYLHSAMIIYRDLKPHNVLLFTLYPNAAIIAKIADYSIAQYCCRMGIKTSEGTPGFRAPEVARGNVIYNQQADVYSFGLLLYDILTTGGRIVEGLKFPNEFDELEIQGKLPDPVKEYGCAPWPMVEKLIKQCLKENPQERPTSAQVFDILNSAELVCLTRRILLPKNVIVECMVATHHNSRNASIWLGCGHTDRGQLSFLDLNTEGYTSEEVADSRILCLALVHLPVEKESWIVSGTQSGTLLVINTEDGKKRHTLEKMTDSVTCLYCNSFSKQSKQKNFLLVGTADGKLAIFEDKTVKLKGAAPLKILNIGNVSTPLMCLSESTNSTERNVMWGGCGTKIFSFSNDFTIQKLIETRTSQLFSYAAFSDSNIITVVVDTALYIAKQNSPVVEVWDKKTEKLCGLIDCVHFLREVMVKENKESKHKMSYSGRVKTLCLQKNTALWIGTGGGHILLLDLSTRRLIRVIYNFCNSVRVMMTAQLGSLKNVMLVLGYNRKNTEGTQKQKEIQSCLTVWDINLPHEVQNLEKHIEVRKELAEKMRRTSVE
As to the kind of experiment: In Vitro LRRK2 Assay (LabChip 3000, fluorescently-labeled peptide substrate, ATP). The assay is classed as biochemical. As to conditions: Table 9; LRRK2 Ki (micromolar); read-out: LRRK2 Ki (KI). The procedure:
This assay was used to determine a compound's potency in inhibiting activity of LRRK2 by determining, Kiapp, IC50, or percent inhibition values. In a polypropylene plate, LRRK2, fluorescently-labeled peptide substrate, ATP and test compound were incubated together. Using a LabChip 3000 (Caliper Life Sciences), after the reaction the substrate was separated by capillary electrophoresis into two populations: phosphorylated and unphosphorylated. The relative amounts of each were quantitated by fluorescence intensity. LRRK2 Ki was determined according to the equation: Y=V0*(1−(x+Ki*(1+S/Km)+Et)/(2*Et)−(((x+Ki*(1+S/Km)+Et)^2−(4*Et*x))^0.5)/(2*Et))). Ki values in Table 4 and elsewhere herein are shown in μM.
Assay conditions and materials used were as follows:
Compound Plate Preparation:
For serial dilutions, 34.6 μl DMSO was added to columns 3-24.
Total and Blank Preparation:
In Complete Reaction Buffer, substrate was diluted to 4 μM. Equal volumes of Complete Reaction Buffer and 4 μM substrate were combined to obtain the blank. Equal volumes of Complete Reaction Buffer and 4 μM substrate were combined and to the combined solution was added 2× final LRRK2 concentration.
To a 50 μl polypropylene plate, 5 μl/well buffer/substrate was added by hand to Blank wells. A Biomek FX was used to start the kinase reaction (“PLK SAR 23 ATP”). The following were added to the appropriate wells:
5 μl/well compound/ATP in Assay Plate;
5 μl/well kinase/substrate in Assay Plate;
The plate was incubated for 2 hours in the dark. Biomek FX was used to stop the kinase reaction (“PLK Stop”), and 10 μl/well Stop solution was added to the Assay Plate. Results were read on the LabChip 3000.
The LabChip 3000 was run using the job “LRRK2 IC50” with the following job settings: […]
As to `CNc1nc(Nc2cnn(-c3ccccc3)c2C)ncc1C#N` [Example 360, 2-(5-methyl-1-phenyl-1H-pyrazol-4-ylamino)-4-(methylamino) pyrimidine-5-carbonitrile], the inhibition constant (Ki) turned out to be 1.3 nM.

The same assay, now with this note: Table 10; LRRK2 Ki (micromolar); read-out: LRRK2 Ki (KI).
On to `COC(=O)C(C)(C)n1cc(Nc2ncc(Cl)c(OC)n2)c(C)n1` [Example 435, 2-[4-(5-Chloro-4-methoxy-pyrimidin-2-ylamino)-3-methyl-pyrazol-1-yl]-2-methyl-propionic acid methyl ester], for which the inhibitory constant (Ki) was 35.5 nM.

In the case of `CNc1nc(Nc2cnn([C@@H](C)C#N)c2C)ncc1C(F)(F)F` [Example 415, (S)-2-(5-methyl-4-(4-(methylamino)-5-(trifluoromethyl)pyrimidin-2-ylamino)-1H-pyrazol-1-yl)propanenitrile], the inhibition constant (Ki) was determined as 9.5 nM.

Consider `CNc1nc(Nc2cnn([C@H](C)C(=O)N3CCCC3)c2C)ncc1C(F)(F)F` [Example 411, (R)-2-(5-methyl-4-(4-(methylamino)-5-(trifluoromethyl)pyrimidin-2-ylamino)-1H-pyrazol-1-yl)-1-(pyrrolidin-1-yl)propan-1-one], for which the Ki turned out to be 39 nM.

The assay is the same for the next values; noted with them: read-out: LRRK2 Ki (KI), Table 7.
`COc1nc(Nc2cn(C)nc2C)ncc1Cl` [Example 15, 5-Chloro-N-(1,3-dimethyl-1H-pyrazol-4-yl)-4-methoxy-pyrimidin-2-amine]: the Ki was 14.4 nM.

Consider `COc1nc(Nc2cn(C3COC3)nc2C)ncc1Cl` [Example 18, 5-Chloro-4-methoxy-N-(3-methyl-1-(oxetan-3-yl)-1H-pyrazol-4-yl)pyrimidin-2-amine], for which the Ki was 22 nM.

For the molecule `CNc1nc(Nc2ccnn2C(C)C)ncc1C(F)(F)F` [Example 47, N^2-(1-isopropyl-1H-pyrazol-5-yl)-N^4-methyl-5-(trifluoromethyl) pyrimidine-2,4-diamine], the Ki came to 112 nM.

Take `COc1nc(Nc2cn(C(C)(C)C#N)nc2C)ncc1Cl` [Example 73, 2-(4-(5-chloro-4-methoxy-pyrimidin-2-ylamino)-3-methyl-1H-pyrazol-1-yl)-2-methylpropane-nitrile]: the inhibition constant Ki turned out to be 14 nM.

`COc1nc(Nc2cn(-c3ccccc3)nc2C)ncc1C(F)(F)F` [Example 77, (4-Methoxy-5-trifluoromethyl-pyrimidin-2-yl)-(3-methyl-1-phenyl-1H-pyrazol-4-yl)-amine]: the inhibition constant (Ki) worked out at 1.6 nM.

As for `COc1nc(Nc2cc(C(C)C)nn2C)ncc1Cl` [Example 41, 5-Chloro-N-(3-isopropyl-1-methyl-1H-pyrazol-5-yl)-4-methoxy-pyrimidin-2-amine], the inhibition constant Ki was 70 nM.

For `COc1nc(Nc2cnn(-c3ccc(C(=O)N(C)C)cc3)c2C)ncc1Cl` [Example 82, 4-[4-(5-Chloro-4-methoxy-pyrimidin-2-ylamino)-5-methyl-pyrazol-1-yl]-N,N-dimethyl-benzamide], the Ki was 630 nM.

The assay is the same for the next values; noted with them: read-out: LRRK2 Ki (KI), Table 8.
In the case of `CNc1nc(Nc2nn(C3CCN(C)CC3)cc2C)ncc1C(F)(F)F` [Example 141, N4-methyl-N2-(4-methyl-1-(1-methylpiperidin-4-yl)-1H-pyrazol-3-yl)-5-(trifluoromethyl) pyrimidine-2,4-diamine], the Ki was found to be 41 nM.

As to `CCNc1nc(Nc2cn(CC(C)(C)O)nc2C(C)C)ncc1C(F)(F)F` [Example 221, 1-(4-(4-(ethylamino)-5-(trifluoromethyl)pyrimidin-2-ylamino)-3-isopropyl-1H-pyrazol-l-yl)-2-methylpropan-2-ol], the inhibition constant Ki was found to be 6.1 nM.

Regarding `CCNc1nc(Nc2cnn(C3CCN(C)CC3)c2C)ncc1C(F)(F)F` [Example 207, N4-ethyl-N2-(5-methyl-1-(1-methylpiperidin-4-yl)-1H-pyrazol-4-yl)-5-(trifluoromethyl) pyrimidine-2,4-diamine], the Ki is 2.6 nM.

Regarding `CNc1nc(Nc2cnn(C3CCOCC3)c2Cl)ncc1C(F)(F)F` [Example 226, N2-(5-chloro-1-(tetrahydro-2H-pyran-4-yl)-1H-pyrazol-4-yl)-N4-methyl-5-(trifluoromethyl) pyrimidine-2,4-diamine], the Ki was determined as 0.7 nM.

Take `CNc1nc(Nc2cn(Cc3ccn(C)n3)nc2C)ncc1C(F)(F)F` [Example 325, N4-Methyl-N2-[3-methyl-1-(1-methyl-1H-pyrazol-3-ylmethyl)-1H-pyrazol-4-yl]-5-trifluoromethyl-pyrimidine-2,4-diamine]: the inhibitory constant (Ki) was 3.8 nM.

For the molecule `CNc1nc(Nc2cn(C)nc2C(C)C)ncc1C(F)(F)F` [Example 227, N2-(3-isopropyl-1-methyl-1H-pyrazol-4-yl)-N4-methyl-5-(trifluoromethyl) pyrimidine-2,4-diamine], the Ki worked out at 69 nM.

As to `CNc1nc(Nc2cn(CC3CC3)nc2C)ncc1C(F)(F)F` [Example 166, N2-(1-(cyclopropyl-methyl)-3-methyl-1H-pyrazol-4-yl)-N4-methyl-5-(trifluoromethyl) pyrimidine-2,4-diamine], the Ki was 4.5 nM.

`CCNc1nc(Nc2cnn(C)c2C2CCC2)ncc1C(F)(F)F` [Example 280, N2-(5-Cyclobutyl-1-methyl-1H-pyrazol-4-yl)-N4-ethyl-5-trifluoromethyl-pyrimidine-2,4-diamine]: the inhibitory constant (Ki) worked out at 3.6 nM.

Turning to `CNc1nc(Nc2cn(C3CCC(=O)NC3)nc2C)ncc1C(F)(F)F` (stereo not drawn) [Example 153, 5-(3-methyl-4-(4-(methylamino)-5-(trifluoromethyl)pyrimidin-2-ylamino)-1H-pyrazol-1-yl)piperidin-2-one], the Ki came to 9.7 nM.

`CCNc1nc(Nc2cn(C3COC3)nc2C)ncc1Cl` [Example 98, 5-chloro-N4-ethyl-N2-(3-methyl-1-(oxetan-3-yl)-1H-pyrazol-4-yl)pyrimidine-2,4-diamine]: the Ki was determined as 3.1 nM.

For `CCNc1nc(Nc2cn(CCOC)nc2C)ncc1C(F)(F)F` [Example 294, N4-Ethyl-N2-[1-(2-methoxy-ethyl)-3-methyl-1H-pyrazol-4-yl]-5-trifluoromethyl-pyrimidine-2,4-diamine], the inhibitory constant (Ki) was 1.1 nM.

Take `CNc1nc(Nc2cn(C3CN(CC(F)(F)F)C3)nc2C)ncc1C(F)(F)F` [Example 202, N4-methyl-N2-(3-methyl-1-(1-(2,2,2-trifluoroethyl)azetidin-3-yl)-1H-pyrazol-4-yl)-5-(trifluoromethyl) pyrimidine-2,4-diamine]: the Ki stood at 34 nM.

As for `CNc1nc(Nc2cnn(-c3ccc(C#N)cc3)c2C)ncc1C(F)(F)F` [Example 147, 4-(5-methyl-4-(4-(methylamino)-5-(trifluoromethyl)pyrimidin-2-ylamino)-1H-pyrazol-1-yl)benzonitrile], the inhibition constant Ki came to 17 nM.

As to `CNc1nc(Nc2cnn(C)c2N(C)C)ncc1C(F)(F)F` [Example 247, N2-(5-(dimethylamino)-1-methyl-1H-pyrazol-4-yl)-N4-methyl-5-(trifluoromethyl) pyrimidine-2,4-diamine], the Ki came out at 77.9 nM.

Take `CNc1nc(Nc2cn(-c3ccc(Cl)cc3)nc2C)ncc1Br` [Example 260, 5-Bromo-N2-[1-(4-chloro-phenyl)-3-methyl-1H-pyrazol-4-yl]-N4-methyl-pyrimidine-2,4-diamine]: the Ki stood at 0.3 nM.

As for `CNc1nc(Nc2cn(C(C)C)nc2C)ncc1Br` [Example 121, 5-bromo-N2-(1-isopropyl-3-methyl-1H-pyrazol-4-yl)-N4-methylpyrimidine-2,4-diamine], the Ki was 3.1 nM.

For `CNc1nc(Nc2cn(Cc3cnccn3)nc2C)ncc1C(F)(F)F` [Example 317, N4-Methyl-N2-(3-methyl-1-pyrazin-2-ylmethyl-1H-pyrazol-4-yl)-5-trifluoromethyl-pyrimidine-2,4-diamine], the Ki came to 1.2 nM.

With `CCNc1nc(Nc2ccn(CC)n2)ncc1C(F)(F)F` [Example 186, N4-ethyl-N2-(1-ethyl-1H-pyrazol-3-yl)-5-(trifluoromethyl) pyrimidine-2,4-diamine], the Ki was 1.9 nM.

As for `CNc1nc(Nc2cnn(CC(O)C(C)C)c2C)ncc1C(F)(F)F` (stereo not drawn) [Example 320, 3-Methyl-1-[5-methyl-4-(4-methylamino-5-trifluoromethyl-pyrimidin-2-ylamino)-pyrazol-1-yl]-butan-2-ol], the inhibition constant (Ki) worked out at 3 nM.

For `CNc1nc(Nc2cn(CC(C)(C)O)nc2C2CC2)ncc1C(F)(F)F` [Example 235, 1-(3-cyclopropyl-4-(4-(methylamino)-5-(trifluoromethyl)pyrimidin-2-ylamino)-1H-pyrazol-1-yl)-2-methylpropan-2-ol], the Ki was 5.1 nM.

In the case of `CNc1nc(Nc2cn(Cc3cccnc3)nc2C)ncc1C(F)(F)F` [Example 289, N4-Methyl-N2-(3-methyl-1-pyridin-3-ylmethyl-1H-pyrazol-4-yl)-5-trifluoromethyl-pyrimidine-2,4-diamine], the inhibitory constant (Ki) is 25 nM.

`CNc1nc(Nc2c[nH]nc2C)ncc1C(F)(F)F` [Example 103, N4-methyl-N2-(3-methyl-1H-pyrazol-4-yl)-5-(trifluoromethyl) pyrimidine-2,4-diamine]: the Ki turned out to be 9 nM.
